As usually defined, the pIC50 is −log10 of the IC50, conventionally taken in molar units. In general, pEC50 refers to the EC50 on a negative log10 scale, so that one unit is a factor of ten.

pEC50, pIC50: −log10 of the molar value. Where only a bound is given, the exact number is not on record here.

Drawing on ChEMBL document CHEMBL1782049, “The synthesis and evaluation of a novel class of (E)-3-(1-cyclohexyl-1H-pyrazol-3-yl)-2-methylacrylic acid hepatitis C virus polymerase NS5B inhibitors” (Bioorg Med Chem Lett, 2011), this text covers IC50, EC50 and selectivity ratio for 14 compounds.

Data set [1] has as its system Hepatitis C virus. Briefly: Inhibition of Hepatitis C virus subtype 1b NS5B activity assessed as inhibition of poly(A)n.oligo(dT)12-18-directed incorporation of [3H]-UTP into […] after 45 mins.
Data set [2] relates to Hepatitis C virus. Nature of the data set: Antiviral activity against Hepatitis C virus subtype 1b infected in human Huh7 cells by replicon assay. It counts as functional, organism-based, Hepacivirus hominis. As to conditions: genotype 1b, Huh-7. For orientation: Replicon systems follow genome replication, usually without infectious particles.
The subject of data set [3] is Hepatitis C virus. Briefly: Antiviral activity against Hepatitis C virus subtype 1b harboring NS5B P495A mutant infected in human Huh7 cells by replicon assay. It counts as functional, organism-based, Hepacivirus hominis. Conditions: genotype 1b, Huh-7.
The nature of data set [4]: Therapeutic index, ratio of CC50 for human HuH cells to EC50 for Hepatitis C virus subtype 1b. It counts as cell-based. As to conditions: read-out: Ratio CC50/EC50.

Take `C/C(=C\c1cc(-c2ccc(OCc3cc(C(=O)N4CCC(O)CC4)ccc3-c3ccc(Cl)cc3)cc2)n(C2CCCCC2)n1)C(=O)O`: the pIC50 in the data set with Hepatitis C virus [1] is 6.36. Turning to `C/C(=C\c1cc(-c2ccc(OCc3cc(C(=O)N(C)C)ccc3-c3ccc(Cl)cc3)cc2)n(C2CCCCC2)n1)C(=O)O`, the pIC50 in the data set with Hepatitis C virus [1] is 6.34. In the data set with Hepatitis C virus [2], this compound gave a pEC50 of 5.72. `CNC(=O)c1ccc(-c2ccc(Cl)cc2)c(COc2ccc(-c3cc(/C=C(\C)C(=O)O)nn3C3CCCCC3)cc2)c1`: the pIC50 in the data set with Hepatitis C virus [1] was 6.42. In the case of `C/C(=C\c1cc(-c2ccc(OCc3cc(C(=O)N4CCC(O)CC4)ccc3-c3ccc(C#N)cc3)cc2)n(C2CCCCC2)n1)C(=O)O`, the pEC50 was 5.40 with Hepatitis C virus [3] and 6.40 in the data set with Hepatitis C virus [2]. For the same compound, the pIC50 in the data set on Hepatitis C virus [1] was 6.47. Besides, in data set [4], the selectivity ratio was over 60. With `CNC(=O)c1ccc(-c2ccc(C#N)cc2)c(COc2ccc(-c3cc(/C=C(\C)C(=O)O)nn3C3CCCCC3)cc2)c1`, in the data set on Hepatitis C virus [1], the pIC50 is 6.10. Still for that read-out and setting: the value for `CNC(=O)c1ccc(-c2ccc(Cl)cc2)c(COc2ccc(-c3nc(/C=C(\C)C(=O)O)cn3C3CCCCC3)cc2)c1` was 5.79. On to `C/C(=C\c1cc(-c2ccc(OCc3cc(C(=O)N(C)C)ccc3-c3ccc(C#N)cc3)cc2)n(C2CCCCC2)n1)C(=O)O`, for which, in the data set on Hepatitis C virus [1], the pIC50 is 6.09. With `CC(=O)c1ccc(-c2ccc(C(=O)N(C)C)cc2COc2ccc(-c3cc(/C=C(\C)C(=O)O)nn3C3CCCCC3)cc2)s1`, the pIC50 with Hepatitis C virus [1] is 5.57. On to `C/C(=C\c1nn(C2CCCCC2)c(-c2ccc(OCc3cc(C(=O)N4CCC(O)CC4)ccc3-c3ccc(Cl)cc3)cc2)c1Br)C(=O)O`, for which the pIC50 in the data set on Hepatitis C virus [1] is 6.19. Besides, the pEC50 with Hepatitis C virus [2] was 6.15. On to `C/C(=C\c1cc(-c2ccc(OCc3cc(C(=O)NCCO)ccc3-c3ccc(Cl)cc3)cc2)n(C2CCCCC2)n1)C(=O)O`, for which the pIC50 in the data set with Hepatitis C virus [1] was 5.99. Still for that read-out and setting: under `CNC(=O)c1ccc(-c2ccc(C(C)=O)s2)c(COc2ccc(-c3cc(/C=C(\C)C(=O)O)nn3C3CCCCC3)cc2)c1` stands 5.64; under `CNC(=O)c1ccc(-c2ccc(Cl)cc2)c(COc2ccc(-n3nc(/C=C(\C)C(=O)O)cc3C3CCCCC3)cc2)c1`, 5.39.

Take `CC(=O)c1ccc(-c2ccc(C(=O)N3CCOCC3)cc2COc2ccc(-c3cc(/C=C(\C)C(=O)O)nn3C3CCCCC3)cc2)s1`: the pIC50 with Hepatitis C virus [1] was 5.28. Regarding `CNC(=O)c1ccc(-c2ccc(Cl)cc2)c(COc2ccc(-c3nc4cc(C(=O)O)ccc4n3C3CCCCC3)cc2)c1`, in the data set with Hepatitis C virus [1], the pIC50 is 6.19. This compound also showed a pEC50 in the data set on Hepatitis C virus [2] of 6.52.
